# Test results as given in patent US20260232865A1, “DENDRIMER-BIOADHESIVE POLYMER HYDROGEL NANOGLUE AND USE THEREOF” (The Johns Hopkins University, priority 2016, published 2026).
# Like-named read-outs stand apart in the source and are kept apart here.
# How the values were obtained:
# Format in all cases: in vivo, rat
# [1] = system: corneal alkali burn; settings: for Estimated area of NV / CCT: mean±standard deviation; for Opacity score: median (inter-quartile range); for CCT: rat alkali burn, subconjunctival gel, 1.6 mg of Dex/eye
# Description: All procedures involving animals conformed with the IACUC research guidelines by the Association for Research in Vision and Ophthalmology Statement for the use of Animals in Ophthalmic and Vision Research and Johns Hopkins University. A total of 57 Lewis rats (7 to 8 weeks of age) were obtained from Harlan Laboratories Inc. (Frederick, MD). All animals weighed between 150 and 200 g, and they were housed at constant temperature (20±1° C.) and humidity (50±5%). They were fed standard rat chow and had access to water ad libitum. All procedures and tests were performed under general anesthesia with intramuscular injection of ketamine 0.9% (Bio-niche Pharma, Lake Forest, IL, USA)/xylazine 0.1% (Phoenix Pharmaceuticals, St. Joseph, MO, USA) and topical proparacaine 0.5% (Sandoz, Holzkirchen, Germany). Corneal alkali burn was generated by applying 0.5N NaOH on cornea. Briefly, sample discs SS-033 0.5 cm in diameter (WESCOR, Logan, Utah, USA) were cut in to 4 quadrants. The quadrant was soaked in 0.5N NaOH for 10 seconds and then placed on central cornea for 15 s. The burn area and the conjunctival sac were immediately irrigated with 30 mL of BSS solution using an eyedrop bottle.
# Corneal alkali burn was performed on rats as described in Example 7.
# After alkali burn, the animals were randomized for treatment in one of the following three groups: (i) Dendrimer-Dexamethasone conjugates entrapped in injectable, dendrimer-hyaluronic acid photocrosslinked gel with a minimal amount of free dexamethasone (D-Dex group, n=10), (ii) free dexamethasone in injectable, dendrimer-hyaluronic acid photocrosslinked gel (free-dex group, n=10), and (iii) no drug, only injectable, dendrimer-hyaluronic acid photocrosslinked gel, n=10. Both D-Dex and free-Dex groups were treated with equivalent Dex basis present in both D-Dex and free Dex formulations (1.6 mg of Dex/eye). […] The free dexamethasone group received a total of 1.6 mg of free dexamethasone. […] All forms of drugs were incorporated into injectable gel formulations (it is the same gel formulation as of example 4). The gel components are premixed and loaded in to the syringe and crosslinked to form gel using UV exposure. At the time of injection the components are in the form of gel) and injected subconjunctivally using 30-gauge, 0.5 cc insulin syringes.
# Animals were assessed at baseline and at the following post-exposure time points: 24 hours, 72 hours, and 7 days. A subset of the animals was also followed up to 14 days.
# The central corneal thickness (CCT) and stromal structure analysis were done using anterior chamber optical coherence tomography (OCT) (Bioptigen Envisu R-class OCT, Bioptigen, NC, USA).
# Changes in intraocular pressure (IOP) were measured using a handheld tonometer (Icare LAB tonometer, Icare, Finland). The settings R for rat were chosen and three individual measurements of IOP were made for each eye for accuracy.
# Corneal opacity was scored by grading the degree of transparency as previously reported by Larkin D F, et al., Clin Exp Immunol., 107:381-391 (1997). The estimated area of neovascularization (NV) was assessed by estimating the radial penetration of the neovascular vessels and their extent in degrees, and by assuming a mean corneal […] of 2.5 mm, so that the maximal area of NV was no more than 2.52π mm^2 (=19.63 mm^2).
# [2] = system: IL-6 mRNA; test: Cytokine mRNA expression in corneal tissue by RT-PCR: IL-6; settings: POD7, normalized to healthy controls, mean±SEM
# Description: (§1) For cytokine expression analysis, the corneas (n=10, for each group) were snap frozen in liquid nitrogen and homogenized carefully into tissue powder using pre-cooled (in liquid nitrogen) porcelain mortar and pestles. The total RNA was purified with TRIzol reagent (Life Technologies, Grand Island, NY) following the manufacturer's instruction. 3 μg of total RNA was reverse-transcribed to cDNA using High-capacity cDNA Reverse Transcription System (Life Technologies) according to the manufacturer's instructions. qRT-PCR was performed with fast SYBR Green Master Mix (Life Technologies) by a StepOnePlus Real-Time PCR System (Life Technologies). Rat GAPDH was used to normalize the expression levels of target gene and calculated by the comparative cycle threshold Ct method (2^−(ΔΔCt)).
# [3] = system: MCP-1 mRNA; test: Cytokine mRNA expression in corneal tissue by RT-PCR: MCP-1
# Description: as §1
smiles,measurement,setting,value
"C[C@@H]1C[C@H]2[C@@H]3CCC4=CC(=O)C=C[C@]4(C)[C@@]3(F)[C@@H](O)C[C@]2(C)[C@@]1(O)C(=O)CO [Free-Dex, Dexamethasone]",Estimated area of NV,[1]; Baseline,0 ± 0 mm^2
same,Opacity score,"[1]; Baseline, grade 0-4",0(0)
same,CCT,[1]; Baseline,142.86 ± 8.68 μm
same,Estimated area of NV,[1]; POD1,0 ± 0 mm^2
same,Opacity score,"[1]; POD1, grade 0-4",3(3)
same,CCT,[1]; POD1,304.95 ± 87.23 μm
same,median opacity score,"[1]; POD3, grade 0-4",3.5
same,Estimated area of NV,[1]; POD3,3.32 ± 1.65 mm^2
same,Opacity score,"[1]; POD3, grade 0-4",3.5(1)
same,CCT,[1]; POD3,357.71 ± 115.58 μm
same,Estimated area of NV,[1]; POD7,3.8 ± 2.89 mm^2
same,Opacity score,"[1]; POD7, grade 0-4",1(1)
same,CCT,[1]; POD7,229.57 ± 91.54 μm
same,mean area occupied by neo-vessels,"[1]; POD7 as printed in text, spread not defined",3.32±0.34 mm^2
same,Estimated area of NV,[1]; POD14,43.32 ± 5.46 mm^2
same,Opacity score,"[1]; POD14, grade 0-4",1(2)
same,CCT,[1]; POD14,226.57 ± 63.67 μm
same,IL-6 mRNA levels,[2],3.0±0.3
same,MCP-1 mRNA levels significantly lower compared to the positive controls,"[3]; POD7, p=0.259",not true
same,MCP-1 mRNA levels,"[3]; POD14, corneal tissue, normalized to healthy controls, mean±SEM",15.4±3.22
